Test results: US20140249135A1, “PIM KINASE INHIBITORS AND METHODS OF THEIR USE” (NOVARTIS AG, priority 2007, published 2014)
Like-named read-outs stand apart in the source and are kept apart here.

Columns and labels:
Pim1 kinase = Pim1 kinase (Homo sapiens, UniProt P11309); experiment: Pim1 ATP depletion assay; type: biochemical; conditions: Pim1 ATP depletion assay;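 note: Luciferase-luciferin luminescence readout of residual ATP after PIM1 transfers phosphate to a peptide substrate, 40 µM ATP added, reaction run to roughly half ATP consumption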
Sequence of Pim1 kinase (P11309 whole entry): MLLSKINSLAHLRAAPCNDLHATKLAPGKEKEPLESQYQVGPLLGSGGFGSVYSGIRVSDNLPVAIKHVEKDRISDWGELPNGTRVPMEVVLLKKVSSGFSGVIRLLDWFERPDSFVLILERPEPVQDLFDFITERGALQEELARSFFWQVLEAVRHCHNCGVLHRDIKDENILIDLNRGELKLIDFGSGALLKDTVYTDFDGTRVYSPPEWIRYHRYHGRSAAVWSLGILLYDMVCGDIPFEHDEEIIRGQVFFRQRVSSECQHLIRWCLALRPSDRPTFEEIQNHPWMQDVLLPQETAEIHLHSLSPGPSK

Pim2 kinase = Pim2 kinase (Homo sapiens, UniProt Q9P1W9); experiment: Pim2 ATP depletion assay; type: biochemical;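 note: Luciferase-based luminescent readout of ATP remaining after PIM2 phosphorylates a BAD peptide, final 5 nM enzyme, 4 µM ATP, 10 µM peptide, 2.5% DMSO, run to roughly half ATP consumption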
Sequence of Pim2 kinase (Q9P1W9 whole entry): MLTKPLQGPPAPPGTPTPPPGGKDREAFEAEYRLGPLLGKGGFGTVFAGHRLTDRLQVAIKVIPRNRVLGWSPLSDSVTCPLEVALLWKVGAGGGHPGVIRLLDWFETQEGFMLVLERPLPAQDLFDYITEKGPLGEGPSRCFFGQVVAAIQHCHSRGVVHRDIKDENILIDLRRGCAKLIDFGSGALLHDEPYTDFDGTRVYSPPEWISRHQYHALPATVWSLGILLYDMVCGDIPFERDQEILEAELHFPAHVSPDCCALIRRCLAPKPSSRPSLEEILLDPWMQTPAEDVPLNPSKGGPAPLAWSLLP

Pim3 kinase = Pim3 kinase (Homo sapiens, UniProt Q86V86); experiment: Pim3 ATP depletion assay; type: biochemical
HEL 92.1.7 cells = experiment: Cell proliferation assay (CellTiter-Glo), HEL 92.1.7; type: cell-based; conditions: Homo sapiens
Protocol: HEL 92.1.7 cells (ATTC No. TIB-180, an erythroleukemia line derived from malignant peripheral blood), MV4-11 cells (ATCC No. CRL-9591, a human acute monocytic leukemia line) and PC3 cells (ATCC No. CRL-1435, a human prostatic adenocarcinoma line) were cultured in RPMI1640 supplemented with 10% FBS, sodium pyruvate and antibiotics. Cells were plated in the same medium at a density of 1000 cells per well into 96 well tissue culture plates, with outside wells vacant, on the day of assay.
Test compounds supplied in DMSO were diluted into DMSO at 500 times the desired final concentrations before dilution into culture media to 2 times final concentrations. Equal volumes of 2× compounds were added to the cells in 96 well plates and incubated at 37° C. for 3 days.
After 3 days plates were equilibrated to room temperature and equal volume of CellTiter-Glow Reagent (Promega) was added to the culture wells. The plates were agitated briefly and luminescent signal was measured with luminometer. The percent inhibition of the signal seen in cells treated with DMSO alone vs. cells treated with control compound was calculated and used to determine EC50 values (i.e., the concentration of a test compound that is required to obtain 50% of the maximum effect in the cells) for tested compounds, as shown in Example 763.

[1] = biological target: T1, human full length PKCE enzyme (Homo sapiens, UniProt Q02156); experiment: In vitro PKCE assay; type: biochemical; conditions: 10 nM enzyme, 40 uM peptide substrate, 20 uM ATP, KinaseGlo Plus readout; read-out: PKCε IC50
T1 construct: human full length PKCE enzyme purchased from InVitrogen; purchased InVitrogen
T1 sequence (Q02156 1-737): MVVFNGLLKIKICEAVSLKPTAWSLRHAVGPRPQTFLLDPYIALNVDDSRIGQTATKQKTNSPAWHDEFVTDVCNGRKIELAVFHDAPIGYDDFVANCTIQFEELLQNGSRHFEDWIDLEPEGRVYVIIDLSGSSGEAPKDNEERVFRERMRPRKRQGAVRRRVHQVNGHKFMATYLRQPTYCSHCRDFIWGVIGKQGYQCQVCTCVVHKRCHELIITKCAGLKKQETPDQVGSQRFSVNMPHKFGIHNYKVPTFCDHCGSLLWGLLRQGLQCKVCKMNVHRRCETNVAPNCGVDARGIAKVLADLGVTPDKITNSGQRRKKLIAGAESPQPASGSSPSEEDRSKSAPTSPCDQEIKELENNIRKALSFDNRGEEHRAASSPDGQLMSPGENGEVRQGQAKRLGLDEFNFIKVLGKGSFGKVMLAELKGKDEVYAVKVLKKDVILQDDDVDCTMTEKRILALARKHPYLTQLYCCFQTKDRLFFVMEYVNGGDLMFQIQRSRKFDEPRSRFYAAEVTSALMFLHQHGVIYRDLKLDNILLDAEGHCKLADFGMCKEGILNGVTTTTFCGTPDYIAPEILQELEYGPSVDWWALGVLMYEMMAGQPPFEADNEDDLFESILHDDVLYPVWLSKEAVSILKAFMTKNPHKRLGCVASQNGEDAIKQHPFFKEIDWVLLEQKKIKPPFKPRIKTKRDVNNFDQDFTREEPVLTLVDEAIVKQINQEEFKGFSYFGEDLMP

| IC50 (Pim1 kinase; read-out: IC50 (μM) PIM1) [µM] | IC50 (Pim2 kinase; read-out: IC50 (μM) PIM2) [µM] | IC50 (Pim3 kinase; read-out: IC50 (μM) PIM3) [µM] | IC50 [1] [µM] | IC50 (Pim1 kinase; read-out: PIM1 IC50) [µM] | IC50 (Pim2 kinase; read-out: PIM2 IC50) [µM] | IC50 (Pim3 kinase; read-out: PIM3 IC50) [µM] | SMILES | EC50 (HEL 92.1.7 cells; read-out: EC50 (μM) HEL 92.1.7) [µM] | EC50 (HEL 92.1.7 cells; read-out: HEL 92.1.7 EC50) [µM] |
| --- | --- | --- | --- | --- | --- | --- | --- | --- | --- |
| < 1 | < 1 | < 1 | 1 to 10 | – | – | – | Nc1ncc(Br)nc1C(=O)Nc1[nH]c(=O)ncc1-c1cccs1 [Example 142, 3-amino-6-bromo-N-[2-oxo-5-(2-thienyl)-2,3-dihydro-pyrimidin-4-yl]pyrazine-2-carboxamide] | 1 to 5 | – |
| < 1 | < 1 | < 1 | > 25 | – | – | – | Nc1ncc(Br)nc1C(=O)Nc1[nH]c(=O)ncc1-c1nccs1 [Example 143, 3-amino-6-bromo-N-[2-oxo-5-(1,3-thiazol-2-yl)-2,3-dihydro-pyrimidin-4-yl]pyrazine-2-carboxamide] | 1 to 5 | – |
| < 1 | < 1 | < 1 | – | – | – | – | CNC(=O)c1ccc(F)c(-c2ccc(N)c(C(=O)Nc3cnccc3N3CCC[C@H](N)C3)n2)c1 [Example 334, 3-amino-6-(2-fluoro-5-methylcarbamoyl-phenyl)-pyridine-2-carboxylic acid ((S)-3-amino-3,4,5,6-tetra-hydro-2H-[1,4′]bipyridinyl-3′-yl)-amide] | 5 to 10 | – |
| < 1 | < 1 | < 1 | – | – | – | – | Cc1ccc(S(=O)(=O)NC(C)(C)C)cc1-c1ccc(N)c(C(=O)Nc2cnccc2N2CCC[C@H](N)C2)n1 [Example 335, 3-amino-6-(5-tert-butyl-sulfamoyl-2-methyl-phenyl)-pyridine-2-carboxylic acid ((S)-3-amino-3,4,5,6-tetra-hydro-2H-[1,4′]bipyridinyl-3′-yl)-amide] | 5 to 10 | – |
| < 1 | < 1 | < 1 | – | – | – | – | COc1ccccc1-c1ccc(N)c(C(=O)Nc2cnccc2N2CCC[C@H](N)C2)n1 [Example 337] | 5 to 10 | – |
| < 1 | < 1 | < 1 | – | – | – | – | Nc1ccc(-c2ccncc2F)nc1C(=O)Nc1cnccc1N1CCC[C@H](N)C1 [Example 339, 5-amino-3′-fluoro-[2,4′]bi-pyridinyl-6-carboxylic acid ((S)-3-amino-3,4,5,6-tetra-hydro-2H-[1,4′]bipyridinyl-3′-yl)-amide] | 1 to 5 | – |
| < 1 | < 1 | < 1 | – | – | – | – | Nc1ncc(-c2ccc(O)cc2)nc1C(=O)Nc1cnccc1N1CCCC(N)C1 (stereo not shown) [Example 358, 3-amino-6-(4-hydroxy-phenyl)-pyrazine-2-carboxylic acid (3-amino-3,4,5,6-tetra-hydro-2H-[1,4′]bipyridinyl-3′-yl)-amide] | < 1 | – |
| < 1 | < 1 | < 1 | – | – | – | – | Nc1cc(-c2ccc(N)c(C(=O)Nc3cnccc3N3CCC[C@H](N)C3)n2)ccn1 [Example 412, 5,2′-diamino-[2,4′]bipyridinyl-6-carboxylic acid ((S)-3-amino-3,4,5,6-tetrahydro-2H-[1,4′]bi-pyridinyl-3′-yl)-amide] | 5 to 10 | – |
| < 1 | < 1 | < 1 | – | – | – | – | COc1cccc(-c2ccc(N)c(C(=O)Nc3cnccc3N3CCC[C@H](N)C3)n2)n1 [Example 413, 5-amino-6′-methoxy-[2,2′]bi-pyridinyl-6-carboxylic acid ((S)-3-amino-3,4,5,6-tetrahydro-2H-[1,4′]bipyridinyl-3′-yl)-amide] | < 1 | – |
| < 1 | < 1 | < 1 | – | – | – | – | Nc1ccc(-c2cccnc2)nc1C(=O)Nc1cnccc1N1CCC[C@H](N)C1 [Example 414, 5-amino-[2,3′]bipyridinyl-6-carboxylic acid ((S)-3-amino-3,4,5,6-tetrahydro-2H-[1,4′]bi-pyridinyl-3′-yl)-amide] | 1 to 5 | – |
| < 1 | < 1 | < 1 | – | – | – | – | Nc1ccc(-c2ccncc2)nc1C(=O)Nc1cnccc1N1CCC[C@H](N)C1 [Example 415, 5-amino-[2,4′]bipyridinyl-6-carboxylic acid ((S)-3-amino-3,4,5,6-tetrahydro-2H-[1,4′]bi-pyridinyl-3′-yl)-amide] | < 1 | – |
| < 1 | < 1 | < 1 | – | – | – | – | Nc1ccc(-c2cccnc2F)nc1C(=O)Nc1cnccc1N1CCC[C@H](N)C1 [Example 419, 5-amino-2′-fluoro-[2,3′]bi-pyridinyl-6-carboxylic acid ((S)-3-amino-3,4,5,6-tetrahydro-2H-[1,4′]bipyridinyl-3′-yl)-amide] | 1 to 5 | – |
| < 1 | < 1 | < 1 | – | – | – | – | COc1ncccc1-c1ccc(N)c(C(=O)Nc2cnccc2N2CCC[C@H](N)C2)n1 [Example 423, 5-amino-2′-methoxy-[2,3′]bi-pyridinyl-6-carboxylic acid ((S)-3-amino-3,4,5,6-tetrahydro-2H-[1,4′]bipyridinyl-3′-yl)-amide] | 1 to 5 | – |
| < 1 | < 1 | < 1 | – | – | – | – | Cc1cccc(C)c1-c1ccc(N)c(C(=O)Nc2cnccc2N2CCC[C@H](N)C2)n1 [Example 426, 3-amino-6-(2,6-dimethyl-phenyl)-pyridine-2-carboxylic acid ((S)-3-amino-3,4,5,6-tetra-hydro-2H-[1,4′]bipyridinyl-3′-yl)-amideQ] | 5 to 10 | – |
| < 1 | < 1 | < 1 | – | – | – | – | COc1cc(F)ccc1-c1ccc(N)c(C(=O)Nc2cnccc2N2CCC[C@H](N)C2)n1 [Example 428, 3-amino-6-(4-fluoro-2-methoxy-phenyl)-pyridine-2-carboxylic acid ((S)-3-amino-3,4,5,6-tetra-hydro-2H-[1,4′]bipyridinyl-3′-yl)-amide] | 5 to 10 | – |
| < 1 | < 1 | < 1 | – | – | – | – | Cc1cc(Cl)ccc1-c1ccc(N)c(C(=O)Nc2cnccc2N2CCC[C@H](N)C2)n1 [Example 429, 3-amino-6-(4-chloro-2-methyl-phenyl)-pyridine-2-carboxylic acid ((S)-3-amino-3,4,5,6-tetra-hydro-2H-[1,4′]bipyridinyl-3′-yl)-amide] | 5 to 10 | – |
| < 1 | < 1 | < 1 | – | – | – | – | Cc1cc(F)ccc1-c1ccc(N)c(C(=O)Nc2cnccc2N2CCC[C@H](N)C2)n1 [Example 430, 3-amino-6-(4-fluoro-2-methyl-phenyl)-pyridine-2-carboxylic acid ((S)-3-amino-3,4,5,6-tetra-hydro-2H-[1,4′]bipyridinyl-3′-yl)-amide] | 1 to 5 | – |
| – | – | – | – | < 1 | < 1 | < 1 | COc1ncccc1-c1ccc(N)c(C(=O)Nc2cnccc2N2CCCCC2)n1 [Example 587, 5-amino-2′-methoxy-[2,3′]bi-pyridinyl-6-carboxylic acid (3,4,5,6-tetrahydro-2H-[1,4′]bipyridinyl-3′-yl)-amide] | – | < 1 |
| – | – | – | – | < 1 | < 1 | < 1 | Cc1ccccc1-c1cnc(N)c(C(=O)Nc2[nH]c(=O)ncc2N2CCCCC2)n1 [Example 591, 3-amino-6-o-tolyl-pyrazine-2-carboxylic acid (2-oxo-5-piperidin-1-yl-2,3-dihydro-pyrimidin-4-yl)-amide] | – | 5 to 10 |

| SMILES | IC50 (Pim1 kinase; read-out: IC50 (μM) PIM1) [µM] | IC50 (Pim2 kinase; read-out: IC50 (μM) PIM2) [µM] | IC50 (Pim3 kinase; read-out: IC50 (μM) PIM3) [µM] | IC50 [1] [µM] | IC50 (Pim1 kinase; read-out: PIM1 IC50) [µM] | IC50 (Pim2 kinase; read-out: PIM2 IC50) [µM] | IC50 (Pim3 kinase; read-out: PIM3 IC50) [µM] | EC50 (HEL 92.1.7 cells; read-out: EC50 (μM) HEL 92.1.7) [µM] | EC50 (HEL 92.1.7 cells; read-out: HEL 92.1.7 EC50) [µM] |
| --- | --- | --- | --- | --- | --- | --- | --- | --- | --- |
| Nc1nccnc1C(=O)Nc1cnccc1N1CCC[C@@H](N)C1 [Example 177, 3-amino-N-{4-[(3R)-3-amino-piperidin-1-yl]pyridin-3-yl}pyrazine-2-carboxamide] | – | < 1 | < 1 | < 1 | – | – | – | > 10 | – |
